The values below come from patent US20200093815A1, “COMBINATIONS OF EZH2 INHIBITORS WITH FURTHER AGENTS FOR USE IN THE TREATMENT OF CANCER” (Constellation Pharmaceuticals, Inc., priority 2015, published 2020).

The subject of data set [1] is 19 multiple myeloma cell lines. As to the kind of experiment: Combination with standard of care agents in multiple myeloma cell lines. The data set is classed as cell-based. The note with it: FIG. 16. The text has this: FIG. 16 summarizes the synergies observed between various standard of care agents as described above in 19 multiple myeloma cell lines.
Data set [2] concerns H3K27me3. Briefly: MSD ELISA of global H3K27me3 and total H3 in OPM-2 tumors (lenalidomide study). The data set is classed as in vivo, BALB/C nude mouse. The settings on record: end of study, total H3 as normalizer; Inhibitor 1 vs vehicle control, combination vs lenalidomide alone; FIG. 6C. How it is done:
(§1) The experiment was carried out to assess the impact of Inhibitor 1 and lenalidomide in combination. Inhibitor 1 was dosed twice daily at 200 mg/kg, administered subcutaneously (200 mpk SC BID) and lenalidomide was dosed intraperitoneally once a day at 25 mg/kg (25 mpk IP QD) for the course of the entire study. Tumor volume was plotted as a function of time. Data are represented as the mean tumor volume per cohort and time point ±s.d. Bodyweight was assessed for vehicle and compound-treated animals for the experiment described in FIG. 6A. […] Data are represented as described in FIG. 6A. Vehicle and compound-treated tumors were collected at the end of the study and analyzed for global H3K27me3 and total H3 levels using an MSD ELISA assay.
Total H3 was used as a normalizer. Data are represented as the mean of data from 4 subjects±s.e.m.

The subject of data set [3] is H3K27me3. Briefly: MSD ELISA of global H3K27me3 and total H3 in OPM-2 tumors (Panobinostat study). The data set is classed as in vivo, BALB/C nude mouse. The settings on record: Inhibitor 1 200 mpk SC BID vs vehicle control, end of study. How it is done:
FIG. 11A is an in vivo combination experiment using an OPM-2 subcutaneous xenograft BALB/C nude mouse model (n=8 per cohort). The experiment was carried out to assess the impact of Inhibitor 1 and Panobinostat in combination. Inhibitor 1 was dosed twice daily at 200 mg/kg administered subcutaneously (200 mpk SC BID) and Panobinostat was dosed intraperitoneally once a day. Panobinostat was dosed at 5 mg/kg QD (DO-D4); 2.5 mg/kg QD (D7-D9, D13, D17 and D19), the dose and frequency of dosing was reduced to manage the toxicity effects. Tumor volume was plotted as a function of time. Data are represented as the mean tumor volume per cohort and time point±s.d. Bodyweight was assessed for vehicle and compound-treated animals for the experiment described in FIG. 11B. Data are represented as described in FIG. 11C. Vehicle and Inhibitor 1-treated tumors were collected at the end of the study and analyzed for global H3K27me3 and total H3 levels using an MSD ELISA assay. […] Data are represented as the mean of data from 4 subjects±s.e.m.

In data set [4] the test system is KMS-27 multiple myeloma cells. Briefly: Cell Titre Glo viability, EZH2 inhibitor and lenalidomide matrix, KMS-27. It is filed as cell-based. The note with it: Inhibitor 1 alone, FIG. 4E. Here is the method: (§2) For all these experiments estimating the combinatorial response between EZH2 inhibitor and lenalidomide, cells were pre-treated with 8 different doses of EZH2 inhibitor for 8 days (Cells were split after 4 days and plated onto EZH2 inhibitor containing plates for an additional 4 days). After pre-treatment, cells were split and seeded onto EZH2 inhibitor and lenaldomide containing plates (compounds plated in a matrix format). Viability was assessed using Cell Titre Glo after 4 days of co-treatment.
(§3) Data are represented as the average percentage of cells in drug-treated wells as compared to DMSO-treated wells from independent duplicate experiments (i and ii). To assess synergy, the data was analyzed in a number of ways including calculation of combination index, bliss independence score and Loewe excess score. […] Data are represented as the mean of independent duplicate experiments ±s.d.

Data set [5] relates to OPM-2 multiple myeloma cells. As to the kind of experiment: Cell Titre Glo viability, EZH2 inhibitor and lenalidomide matrix, OPM-2. It is filed as cell-based. The note with it: Inhibitor 1 alone, FIG. 3E. How it is done:
as §2, §3

In data set [6] the test system is OPM-2 subcutaneous xenograft. Briefly: OPM-2 subcutaneous xenograft combination experiment (lenalidomide, dexamethasone). The data set is classed as in vivo, BALB/C nude mouse. Here is the method: as §1
Tumor volume was plotted as a function of time.

In data set [7] the test system is KARPAS-422 xenograft. The note with it: mouse, in vivo, po, 100 mg/kg. Here is the method:
Tumor volume measurements were recorded at indicated days post initial dose.* CHOP: Cyclophosphamide, 40 mg/kg, i.v.; doxorubicin, 3.3 mg/kg, i.v.; vincristine, 0.5 mg/kg, i.v.; and prednisone, 0.2 mg/kg, every day for 5 days, p.o.

For `CCS(=O)(=O)N1CCC([C@@H](C)n2c(C)c(C(=O)NCc3c(OC)cc(C)[nH]c3=O)c3ccccc32)CC1` [Inhibitor 1], the “combinatorial activity with standard of care agents” value in data set [1] is recorded as “broadly combines with various different standard of care agents”. Also, the “levels of H3K27me3 in tumors” value in data set [2] and in data set [3] was “marked reduction” each time. The “effect of single agent on cell viability” value in data set [4] and in data set [5] was “dose-dependent effect” throughout. Moreover, the “single agent activity in xenograft model” value in data set [6] (Inhibitor 1 200 mpk SC BID alone) was “little single agent activity”. Further, the “effect on in vivo anti-tumor activity of dexamethasone” value in data set [6] (OPM-2 xenograft, FIG. 13) was “increases”.
As for `COc1cc(C)[nH]c(=O)c1CNC(=O)c1c(C)n(C(C)C2CCN(CC(F)(F)F)CC2)c2ccccc12` (stereo not drawn) [Inhibitor 3], the “adverse effects / toxicity” value in data set [7] is “did not show any adverse effects and did not add to CHOP toxicity”.
Take `Nc1cccc2c1CN(C1CCC(=O)NC1=O)C2=O` (stereo not drawn) [Lenalidomide, lenalidomide, reference compound]: in data set [2], the “levels of H3K27me3 in tumors” value was “did not affect”.
